Experimental data reported in ChEMBL document CHEMBL5346867, “A close look into the biological and synthetic aspects of fused pyrazole derivatives” (Eur J Med Chem, 2022).

Experiments:
[1] = biological target: T1, Sodium-dependent proline transporter (Homo sapiens) (UniProt Q99884); assay: Inhibition of human PROT at 0.1 uM relative to control
T1 sequence (whole entry): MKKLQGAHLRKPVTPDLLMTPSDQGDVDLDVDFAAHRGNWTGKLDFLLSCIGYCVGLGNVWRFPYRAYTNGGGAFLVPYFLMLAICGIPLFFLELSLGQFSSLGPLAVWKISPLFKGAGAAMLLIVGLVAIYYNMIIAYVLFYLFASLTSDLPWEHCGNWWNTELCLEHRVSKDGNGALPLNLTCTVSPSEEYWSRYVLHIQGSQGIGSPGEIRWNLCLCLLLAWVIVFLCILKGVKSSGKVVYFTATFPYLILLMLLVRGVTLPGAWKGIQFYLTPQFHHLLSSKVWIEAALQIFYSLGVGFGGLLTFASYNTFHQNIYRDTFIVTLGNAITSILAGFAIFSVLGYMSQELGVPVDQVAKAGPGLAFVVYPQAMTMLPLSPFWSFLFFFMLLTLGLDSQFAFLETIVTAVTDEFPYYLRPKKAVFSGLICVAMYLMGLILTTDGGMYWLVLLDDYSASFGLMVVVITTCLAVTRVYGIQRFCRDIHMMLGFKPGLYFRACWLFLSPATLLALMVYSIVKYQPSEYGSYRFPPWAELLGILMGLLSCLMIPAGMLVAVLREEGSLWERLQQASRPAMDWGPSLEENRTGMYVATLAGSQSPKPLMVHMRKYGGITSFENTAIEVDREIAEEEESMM

[2] = biological target: Epidermal growth factor receptor (Homo sapiens, UniProt P00533); assay: Inhibition of EGFR (unknown origin)
Sequence of Epidermal growth factor receptor (P00533 whole entry): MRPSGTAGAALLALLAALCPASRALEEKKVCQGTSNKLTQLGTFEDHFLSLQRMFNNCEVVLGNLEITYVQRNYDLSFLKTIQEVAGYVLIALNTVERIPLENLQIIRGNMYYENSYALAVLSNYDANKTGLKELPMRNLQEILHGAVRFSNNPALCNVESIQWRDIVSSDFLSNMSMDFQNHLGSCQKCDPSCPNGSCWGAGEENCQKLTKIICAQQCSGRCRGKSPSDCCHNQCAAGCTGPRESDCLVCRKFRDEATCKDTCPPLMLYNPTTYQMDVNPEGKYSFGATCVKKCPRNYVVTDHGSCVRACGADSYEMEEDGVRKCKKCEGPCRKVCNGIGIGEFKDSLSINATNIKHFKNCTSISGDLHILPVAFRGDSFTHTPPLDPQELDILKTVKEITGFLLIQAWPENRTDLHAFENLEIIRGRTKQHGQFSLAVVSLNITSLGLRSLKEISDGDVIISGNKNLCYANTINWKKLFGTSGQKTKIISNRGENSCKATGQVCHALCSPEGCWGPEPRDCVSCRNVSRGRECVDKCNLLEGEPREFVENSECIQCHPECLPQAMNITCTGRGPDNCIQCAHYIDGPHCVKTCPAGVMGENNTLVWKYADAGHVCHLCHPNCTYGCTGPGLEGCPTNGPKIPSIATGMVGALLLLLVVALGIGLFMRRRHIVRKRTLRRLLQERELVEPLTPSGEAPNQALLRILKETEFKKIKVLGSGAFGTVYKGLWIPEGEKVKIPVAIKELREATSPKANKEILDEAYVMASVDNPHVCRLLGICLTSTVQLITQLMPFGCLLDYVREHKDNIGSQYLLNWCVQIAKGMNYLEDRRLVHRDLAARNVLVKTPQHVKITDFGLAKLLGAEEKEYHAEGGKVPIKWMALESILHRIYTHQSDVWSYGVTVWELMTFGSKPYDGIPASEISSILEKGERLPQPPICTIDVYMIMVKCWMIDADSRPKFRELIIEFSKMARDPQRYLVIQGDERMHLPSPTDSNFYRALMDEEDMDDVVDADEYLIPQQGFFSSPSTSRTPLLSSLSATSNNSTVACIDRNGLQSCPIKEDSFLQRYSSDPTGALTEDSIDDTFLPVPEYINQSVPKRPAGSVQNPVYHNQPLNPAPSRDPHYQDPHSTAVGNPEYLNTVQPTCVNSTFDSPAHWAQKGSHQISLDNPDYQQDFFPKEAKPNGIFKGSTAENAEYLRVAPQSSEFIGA

HT-29 = assay: cells; details: Homo sapiens, HT-29, 48 h
Description: Anti-proliferative activity against human HT-29 assessed as inhibition of cell growth incubated for 48 hrs by MTT assay

[3] = biological target: Vascular endothelial growth factor receptor 2 (Homo sapiens, UniProt P35968); assay: Inhibition of VEGFR-2 (unknown origin)
Sequence of Vascular endothelial growth factor receptor 2 (P35968 whole entry): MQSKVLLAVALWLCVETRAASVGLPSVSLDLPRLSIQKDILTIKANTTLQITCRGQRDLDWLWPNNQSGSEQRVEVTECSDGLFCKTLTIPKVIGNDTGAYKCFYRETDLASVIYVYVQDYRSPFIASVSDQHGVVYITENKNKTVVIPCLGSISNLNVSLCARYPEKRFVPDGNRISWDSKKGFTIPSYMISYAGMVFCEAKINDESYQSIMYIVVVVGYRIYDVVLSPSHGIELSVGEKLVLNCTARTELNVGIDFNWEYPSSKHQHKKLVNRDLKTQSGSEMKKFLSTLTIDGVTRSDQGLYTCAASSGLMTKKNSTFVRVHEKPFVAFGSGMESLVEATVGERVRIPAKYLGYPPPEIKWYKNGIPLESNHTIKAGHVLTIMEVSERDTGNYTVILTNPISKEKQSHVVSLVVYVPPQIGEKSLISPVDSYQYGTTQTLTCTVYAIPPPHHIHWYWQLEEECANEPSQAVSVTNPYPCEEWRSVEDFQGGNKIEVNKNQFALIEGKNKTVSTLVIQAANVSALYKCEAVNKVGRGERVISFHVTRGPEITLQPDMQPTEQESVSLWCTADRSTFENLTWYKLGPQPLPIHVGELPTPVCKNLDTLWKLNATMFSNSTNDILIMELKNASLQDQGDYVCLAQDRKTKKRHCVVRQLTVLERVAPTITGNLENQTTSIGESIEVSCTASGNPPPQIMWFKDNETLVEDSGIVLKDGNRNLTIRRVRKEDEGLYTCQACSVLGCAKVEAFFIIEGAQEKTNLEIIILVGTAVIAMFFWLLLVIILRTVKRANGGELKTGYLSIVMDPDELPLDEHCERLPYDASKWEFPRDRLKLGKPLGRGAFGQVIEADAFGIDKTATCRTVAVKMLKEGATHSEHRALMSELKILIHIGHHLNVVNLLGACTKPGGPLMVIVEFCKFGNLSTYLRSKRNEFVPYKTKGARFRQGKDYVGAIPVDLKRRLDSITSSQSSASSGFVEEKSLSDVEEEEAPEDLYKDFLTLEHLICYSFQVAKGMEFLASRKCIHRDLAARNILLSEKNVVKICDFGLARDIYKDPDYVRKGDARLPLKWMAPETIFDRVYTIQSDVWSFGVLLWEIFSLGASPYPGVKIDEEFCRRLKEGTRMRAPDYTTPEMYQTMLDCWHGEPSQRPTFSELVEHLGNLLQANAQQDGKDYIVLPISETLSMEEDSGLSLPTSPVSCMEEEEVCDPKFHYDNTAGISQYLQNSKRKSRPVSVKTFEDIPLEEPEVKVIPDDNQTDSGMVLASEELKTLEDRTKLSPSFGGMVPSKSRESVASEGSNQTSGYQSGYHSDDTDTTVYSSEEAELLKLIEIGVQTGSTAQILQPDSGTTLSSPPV

[4] = tested on: Bovine viral diarrhea virus 1; assay: Antiviral activity against Bovine viral diarrhea virus 1 infected in MDBK cells assessed as reduction in viral replication; type: functional, organism-based; details: Bovine viral diarrhea virus isolates and strains

Compound: CCCCC[C@H]1CCCN1C(=O)c1nn(C(C)(C)C)c2nc(NC(=O)c3ccc(C)cc3)sc12
- inhibition [1]: 50%

Compound: CC1=NNC2Oc3ncn(N)c(=N)c3C(c3ccccc3Br)C12 (stereo unspecified)
- IC50 [2]: 60 nM

Compound: COc1cc(/C=N/NC(=O)COc2nc(C)nc3c2c(C)nn3-c2ccccc2)cc(OC)c1OC
- IC50 (HT-29): 5360 nM

Compound: CC1=NNC2OC(NS(=O)(=O)c3ccc(C)cc3)=C(C#N)C(c3ccccc3Br)C12 (stereo unspecified)
- IC50 [3]: 220 nM

Compound: NC(=O)c1ncn([C@@H]2O[C@H](CO)[C@@H](O)[C@H]2O)n1 [RIBAVIRIN]
- EC50 [4]: 1300 nM

Compound: Cc1nn(-c2ccc(Cl)cc2)c2c1C(=O)N(c1ccccc1)C2
- EC50 [4]: 120 nM
